Results reported in patent US11813305B2, “Endoplasmic reticulum stress as a predictive tool in cancer therapy and a combination therapy for the treatment of cancer” (IMMUNE SYSTEM KEY LTD., priority 2016, dated 2023).
Square brackets hold non-standard residues; d marks the D form. Peptide text beside a SMILES is read from it.

Legend:
[1] = human, in vivo
Description: (§1) The dose escalation study followed a traditional “3+3” scheme and included doses of 6, 12, 24, 48, and 96 mg/m^2 intravenous (i.v.) dTCApFs, 3 times/week in consecutive 28-day cycles. In all 3-patient cohorts, there were 2-4 weeks between the first dose for the first and second patients, and ≥1 week for the third patient. New dose levels started after follow up of ≥28 days for 3 patients at the previous level. MTD was defined as the highest dose level at which ≥1 of 3 subjects experience a DLT during their first cycle of treatment. […] In addition, PK parameters, including area under the curve (AUC), maximal plasma concentration (Cmax), and plasma half-life (t1/2) were determined. PK parameters were estimated using non-compartmental models.
(§2) dTCApFs powder for solution for injection is supplied as a lyophilized 5 mL vial containing either 15 mg (7.5 mg/mL) or 10 mL vial containing 80 mg (40 mg/mL) of the active substance with 4.8% mannitol, for reconstitution to a final volume of 2 mL with water for injection per vial as described above. The reconstituted 2 mL vial of dTCApFs powder for solution for injection must thereafter be diluted to a final volume 100 mL in aqueous Dextrose 5% for infusion for dose levels up to and including 48 mg/m2. For dose levels above 48 mg/m2, the final dilution volume was 250 mL. dTCApFs for injection was administered intravenously (iv) during 60 minutes.
(§3) PK parameters, including AUC (0-24), Cmax, Cmin, Tmax and t1/2 are estimated using non-compartmental models. Comparisons across dose levels are made to assess proportionality.

[2] = Pharmacokinetics of dTCApFs, phase I dose escalation study, i.v. 3 times/week; conditions: human, plasma
Description: as §1, §2, §3

With `CC(C)C[C@@H](NC(=O)[C@H](NC(=O)[C@@H](CO)NC(=O)[C@H]1CCCN1C(=O)[C@@H](CC(C)C)NC(=O)[C@@H](Cc1ccccc1)NC(=O)[C@@H](Cc1ccccc1)NC(=O)[C@H](NC(=O)[C@@H](Cc1c[nH]c2ccccc12)NC(=O)[C@H](N)Cc1c[nH]c2ccccc12)[C@H](C)O)[C@H](C)O)C(=O)N[C@H](Cc1c[nH]c2ccccc12)C(=O)N[C@H](CCC(=O)O)C(=O)N[C@H](CCCNC(=N)N)C(=O)N[C@H](CCCCN)C(=O)O` [dTCApFs, Trp Trp Thr Phe Phe Leu Pro Ser Thr Leu Trp Glu Arg Lys] (H-[dW][dW][dT][dF][dF][dL][dP][dS][dT][dL][dW][dE][dR][dK]-OH; N-terminus and C-terminus assumed) the “relation of t1/2, Cmax and AUC0 to dose” value [1] was “linearly related to dose”, the Cmax ([2]; intravenous, 12 mg/m^2, Cmax, Cycle 2, Day 1, 12 mg/m^2, n = 4) was 6050 ng/mL and the Cmax ([2]; intravenous, 24 mg/m^2, Cmax, Cycle 2, Day 1, 24 mg/m^2, n = 4) was 14600 ng/mL. For the same compound, the AUC ([2]; intravenous, 96 mg/m^2, AUC0, Cycle 2, Day 1, 96 mg/m^2, n = 3) was 295000 ng·h/mL, the AUC ([2]; iv, 6 mg/m2, AUC0, Cycle 1, Day 1, 6 mg/m^2, n = 3) was 3810 ng·h/mL and the AUC ([2]; iv, 6 mg/m2, AUC0, Cycle 2, Day 1, 6 mg/m^2, n = 3) was 9720 ng·h/mL. The Cmax ([2]; iv, 6 mg/m2, Cmax, Cycle 1, Day 1, 6 mg/m^2, n = 3) was 1210 ng/mL, the Cmax ([2]; iv, 6 mg/m2, Cmax, Cycle 2, Day 1, 6 mg/m^2, n = 3) was 1540 ng/mL and the half-life ([2]; iv, 6 mg/m2, T1/2, Cycle 1, Day 1, 6 mg/m^2, n = 3) was 2.3 h. For the same compound, the half-life ([2]; iv, 6 mg/m2, T1/2, Cycle 2, Day 1, 6 mg/m^2, n = 3) was 2.8 h, the AUC ([2]; iv, 12 mg/m2, AUC0, Cycle 1, Day 1, 12 mg/m^2, n = 4) was 12900 ng·h/mL and the AUC ([2]; iv, 12 mg/m2, AUC0, Cycle 2, Day 1, 12 mg/m^2, n = 4) was 11500 ng·h/mL. For the same compound, the Cmax ([2]; iv, 12 mg/m2, Cmax, Cycle 1, Day 1, 12 mg/m^2, n = 4) was 6050 ng/mL, the half-life ([2]; iv, 12 mg/m2, T1/2, Cycle 1, Day 1, 12 mg/m^2, n = 4) was 2.1 h and the half-life ([2]; iv, 12 mg/m2, T1/2, Cycle 2, Day 1, 12 mg/m^2, n = 4) was 2 h. For the same compound, the AUC ([2]; iv, 24 mg/m2, AUC0, Cycle 1, Day 1, 24 mg/m^2, n = 4) was 49600 ng·h/mL, the AUC ([2]; iv, 24 mg/m2, AUC0, Cycle 2, Day 1, 24 mg/m^2, n = 4) was 57100 ng·h/mL and the Cmax ([2]; iv, 24 mg/m2, Cmax, Cycle 1, Day 1, 24 mg/m^2, n = 4) was 14600 ng/mL. For the same compound, the half-life ([2]; iv, 24 mg/m2, T1/2, Cycle 1, Day 1, 24 mg/m^2, n = 4) was 3.2 h, the half-life ([2]; iv, 24 mg/m2, T1/2, Cycle 2, Day 1, 24 mg/m^2, n = 4) was 3.7 h and the AUC ([2]; iv, 48 mg/m2, AUC0, Cycle 1, Day 1, 48 mg/m^2, n = 4) was 79900 ng·h/mL. The AUC ([2]; iv, 48 mg/m2, AUC0, Cycle 2, Day 1, 48 mg/m^2, n = 4) was 100000 ng·h/mL, the Cmax ([2]; iv, 48 mg/m2, Cmax, Cycle 1, Day 1, 48 mg/m^2, n = 4) was 18300 ng/mL and the Cmax ([2]; iv, 48 mg/m2, Cmax, Cycle 2, Day 1, 48 mg/m^2, n = 4) was 22100 ng/mL. For the same compound, the half-life ([2]; iv, 48 mg/m2, T1/2, Cycle 1, Day 1, 48 mg/m^2, n = 4) was 4.9 h, the half-life ([2]; iv, 48 mg/m2, T1/2, Cycle 2, Day 1, 48 mg/m^2, n = 4) was 4.6 h and the AUC ([2]; iv, 96 mg/m2, AUC0, Cycle 1, Day 1, 96 mg/m^2, n = 3) was 207000 ng·h/mL. For the same compound, the Cmax ([2]; iv, 96 mg/m2, Cmax, Cycle 1, Day 1, 96 mg/m^2, n = 3) was 33000 ng/mL, the Cmax ([2]; iv, 96 mg/m2, Cmax, Cycle 2, Day 1, 96 mg/m^2, n = 3) was 32000 ng/mL and the half-life ([2]; iv, 96 mg/m2, T1/2, Cycle 1, Day 1, 96 mg/m^2, n = 3) was 6 h. It also gave a half-life ([2]; iv, 96 mg/m2, T1/2, Cycle 2, Day 1, 96 mg/m^2, n = 3) of 8.5 h.
